Measured values published in article PMC7383625, “Sequence‐Based Prediction of Promiscuous Acyltransferase Activity in Hydrolases” (Angewandte Chemie (International Ed. in English), 2020).

Columns and labels:
Format in all cases: biochemical
Est8 [1] = biological target: T1, Est8 (uncultured bacterium, UniProt Z9EH37ATT5); assay: GC of 2-phenylethyl acetate formation; conditions: acyl acceptor, 20 mM; vinyl acetate 200 mM as acyl donor; 200 mM buffer at pH optimum
T1 construct: bHSL esterase with N-terminal cap domain; crystal structure solved here
T1 sequence (Z9EH37ATT5 1-297): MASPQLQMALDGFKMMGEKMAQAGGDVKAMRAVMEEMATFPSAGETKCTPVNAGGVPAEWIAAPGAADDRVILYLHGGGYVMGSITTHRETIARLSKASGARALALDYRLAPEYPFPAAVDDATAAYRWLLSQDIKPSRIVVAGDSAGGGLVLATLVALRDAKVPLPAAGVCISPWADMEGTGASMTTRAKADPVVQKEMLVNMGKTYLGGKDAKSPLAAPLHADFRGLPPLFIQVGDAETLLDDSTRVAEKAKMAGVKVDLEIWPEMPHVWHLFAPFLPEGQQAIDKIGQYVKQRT

4XVC = biological target: T2, 4XVC (uncultured bacterium, UniProt Z9PJA9OM60); assay: colorimetric pNPA acyltransferase assay, pNP release at […] nm; conditions: acyl donor; benzyl alcohol or 2-phenylethanol as acyl acceptor
T2 construct: named only by PDB code; construct in supplement
T2 sequence (Z9PJA9OM60 21-317): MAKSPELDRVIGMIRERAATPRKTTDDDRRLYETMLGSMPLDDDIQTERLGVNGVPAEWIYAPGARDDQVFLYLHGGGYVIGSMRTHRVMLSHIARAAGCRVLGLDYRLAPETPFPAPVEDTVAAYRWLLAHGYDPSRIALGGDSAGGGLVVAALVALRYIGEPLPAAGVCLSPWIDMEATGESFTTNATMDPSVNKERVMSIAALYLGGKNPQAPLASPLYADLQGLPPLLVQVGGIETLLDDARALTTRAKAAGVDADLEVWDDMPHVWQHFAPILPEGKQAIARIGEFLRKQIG

Est8 [2] = biological target: T1, Est8; assay: as above; conditions: acyl donor; benzyl alcohol or 2-phenylethanol as acyl acceptor
3ZWQ = biological target: T3, 3ZWQ (Pyrobaculum calidifontis, UniProt A3MVR4); assay: as above; conditions: acyl donor; benzyl alcohol or 2-phenylethanol as acyl acceptor
T3 construct: gene Pcal_1307; named only by PDB code; construct in supplement
T3 sequence (A3MVR4 1-313): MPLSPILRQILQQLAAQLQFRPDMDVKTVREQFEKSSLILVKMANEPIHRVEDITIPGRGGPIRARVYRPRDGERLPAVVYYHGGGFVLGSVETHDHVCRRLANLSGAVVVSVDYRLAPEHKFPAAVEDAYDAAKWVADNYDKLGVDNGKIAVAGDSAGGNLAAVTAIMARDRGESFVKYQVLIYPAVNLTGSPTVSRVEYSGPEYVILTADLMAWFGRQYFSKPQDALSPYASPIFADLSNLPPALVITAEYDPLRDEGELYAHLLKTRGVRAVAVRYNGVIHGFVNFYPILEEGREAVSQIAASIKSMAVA

3FAK = biological target: T4, 3FAK (uncultured bacterium, UniProt Q0GMU2); assay: as above; conditions: acyl donor; benzyl alcohol or 2-phenylethanol as acyl acceptor
T4 construct: named only by PDB code; construct in supplement
T4 sequence (Q0GMU2 with tags, fused parts or gaps): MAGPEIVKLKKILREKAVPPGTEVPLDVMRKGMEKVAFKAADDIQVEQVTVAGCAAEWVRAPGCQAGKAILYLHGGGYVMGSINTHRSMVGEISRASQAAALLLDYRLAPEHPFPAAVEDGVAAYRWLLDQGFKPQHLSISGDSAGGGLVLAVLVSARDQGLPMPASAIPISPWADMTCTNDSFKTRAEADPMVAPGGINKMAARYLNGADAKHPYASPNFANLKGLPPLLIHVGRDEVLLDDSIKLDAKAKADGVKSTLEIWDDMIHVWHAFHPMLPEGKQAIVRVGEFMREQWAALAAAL

3K6K = biological target: T5, 3K6K (uncultured bacterium, UniProt Z9ICY0V5A2); assay: as above; conditions: acyl donor; benzyl alcohol or 2-phenylethanol as acyl acceptor
T5 construct: named only by PDB code; construct in supplement
T5 sequence (Z9ICY0V5A2 15-328): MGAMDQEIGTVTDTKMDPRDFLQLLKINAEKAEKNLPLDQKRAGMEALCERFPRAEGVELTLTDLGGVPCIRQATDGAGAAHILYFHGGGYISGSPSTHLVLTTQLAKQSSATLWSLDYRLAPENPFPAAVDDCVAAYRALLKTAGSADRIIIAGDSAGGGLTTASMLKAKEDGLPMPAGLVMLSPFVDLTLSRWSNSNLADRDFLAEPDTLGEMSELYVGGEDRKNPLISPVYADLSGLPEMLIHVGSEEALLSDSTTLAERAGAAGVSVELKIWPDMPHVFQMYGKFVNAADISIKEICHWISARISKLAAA

SMILES | GC of 2-phenylethyl acetate formation (Est8 [1]) | colorimetric pNPA acyltransferase assay, pNP release at 405 nm (4XVC) | colorimetric pNPA acyltransferase assay, pNP release at 405 nm (Est8 [2]) | colorimetric pNPA acyltransferase assay, pNP release at 405 nm (3ZWQ) | colorimetric pNPA acyltransferase assay, pNP release at 405 nm (3FAK) | colorimetric pNPA acyltransferase assay, pNP release at 405 nm (3K6K)
OCCc1ccccc1 [2-phenylethanol] | For Est8, product hydrolysis became more dominant than acyl transfer quickly |  |  |  |  | 
CC(=O)Oc1ccc([N+](=O)[O-])cc1 [pNPA] |  | reactions were carried out for Est8 and its homologues using both benzyl alcohol | reactions were carried out for Est8 and its homologues using both benzyl alcohol | 3ZWQ showed three‐fold higher acyltransferase activity with benzyl alcohol, outperforming 1EVQ | reactions were carried out for Est8 and its homologues using both benzyl alcohol | reactions were carried out for Est8 and its homologues using both benzyl alcohol
